Results: article PMC12162873, “Modulating phosphatase DUSP22 with BML-260 ameliorates skeletal muscle wasting via Akt independent JNK-FOXO3a repression” (EMBO Molecular Medicine, 2025)
Where “and” joins values, the source holds several entries; their conditions need not be identical. Equal values may be shown once. Entries after “also recorded” stand apart in the source; their conditions may differ. Read-outs that look alike come from different tables or passages of the source.

Tests used:
DUSP22 = tested on: DUSP22; design: method as in Cutshall et al, 2005; details: ref Cutshall et al, 2005, cited from earlier work
[1] = Pharmacokinetics analysis, TA muscle (LC-MS/MS); format: in vivo, mouse; details: for concentration at 0.5 h / concentration at 1 h / concentration at 1.5 h / concentration at 2 h / concentration at 6 h: male, C57BL/6J, mouse, tibialis anterior (TA) muscle, intraperitoneal, 5 mg/kg
Protocol: (§1) Assessment of BML-260 pharmacokinetics (PK) was carried out by the company Chaon, Yongin-si, Republic of Korea. BML-260 was administered intraperitoneally at a dose of 5 mg/kg in an injection volume of 10 mL/kg. A total of 21 6-week-old male C57BL/6J mice were divided into two groups as follows: 1) PK (plasma) group (3 mice) and 2) PK (TA muscle) group (18 mice across 6 time points).
For the PK (plasma) group, blood samples were collected at 0.5, 1, 1.5, 2, 6, 12, and 24 h after administration, using orbital sinus collection. Blood was centrifuged to obtain plasma that was then stored at −80 °C. For the PK (TA muscle) group, mice were euthanized at 0.5, 1, 1.5, 2, 6, and 12 h post-administration. The TA muscle was weighed and stored at −80 °C.
(§2) BML-260 levels in plasma and tissue samples were analyzed with liquid chromatography-tandem mass spectrometry (LC-MS/MS) using an Agilent 1200 HPLC system coupled with an AB Sciex 4000 QTrap MS/MS (Agilent Technologies, CA, USA). Quantification limits were determined based on a signal-to-noise ratio greater than 10, with precision below 20% and accuracy between 80% and 120%.

[2] = Pharmacokinetics analysis, plasma (LC-MS/MS); format: in vivo, mouse; design: peak plasma concentration after injection: unit not given here; details: for Plasma Conc. / Plasma Conc., Mean / concentration at 0.25 h / concentration at 0.5 h / concentration at 1.5 h / concentration at 2 h / concentration at 8 h: 5 mg/kg (IP); for concentration at 0.25 h / concentration at 0.5 h / concentration at 1.5 h / concentration at 2 h / concentration at 8 h: intraperitoneal, 5 mg/kg
Protocol: as §1
[…] Blood was centrifuged to obtain plasma that was then stored at −80 °C. For the PK (TA muscle) group, mice were euthanized at 0.5, 1, 1.5, 2, 6, and 12 h post-administration. The TA muscle was weighed and stored at −80 °C.
as §2

[3] = tested on: 15-month-old C57BL/6J male mice; assay: Assessment of potential organ toxicity (liver, heart, kidney); format: in vivo, mouse; design: Kidney mass / Liver mass / heart mass / Kidney mass, Average / Liver mass, Average / heart mass, Average: unit not given here; details: 5 mg/kg IP every 24 h for 6 weeks
Protocol: To assess the effect of BML-260 treatment on the liver, heart and kidney, 15-month-old C57BL/6J male mice were treated as follows: 1) Vehicle (DMSO in PBS pH 7.4 with 5% Tween 80) alone, 2) 5 mg/kg BML-260 (n = 4 per group). BML-260 was administered via IP delivery every 24 h for 6 weeks. The mice were then sacrificed and the liver, kidneys and heart were weighed and photographed.
A) Photographs of the kidneys, liver, and heart after 6 weeks treatment with 5 mg/kg in 15 month-old mice. (n=4) B) Kidney(p=0.4403), liver(0.5545), and heart(0.5349) mass. ns=not statistically significant. n represents biological replicates analyzed by Student’s t test. Error bars represent the standard error of the mean (SEM).
(1 picture or pasted object on this page, not shown here)

[4] = 5 mg/kg IP, as read by referee #2

## O=C(O)c1ccc(N2C(=O)C(=Cc3ccccc3)SC2=S)cc1 (stereo in doubt) [BML-260]
DUSP22; EGF-R peptide P32-based assay
  IC50: 18 µM
DUSP22
  IC50 for DUSP22 (in words): low micromolar range
  mode of DUSP22 inhibition: competitive inhibitor
[1]; 5 mg/kg (IP), 0.5 h, TA muscle, dilution factor 4, individual animals
  Muscle Conc.: 0.350 µg/g and 0.280 µg/g
[1]; 5 mg/kg (IP), 0.5 h, TA muscle, individual animals
  Muscle Conc. before dilution factor: 87.62 ng/mL and 70.09 ng/mL
[1]; 5 mg/kg (IP), 1 h, TA muscle, dilution factor 4, individual animals
  Muscle Conc.: 0.335 µg/g and 0.367 µg/g
[1]; 5 mg/kg (IP), 1 h, TA muscle, individual animals
  Muscle Conc. before dilution factor: 83.78 ng/mL and 91.76 ng/mL
[1]; 5 mg/kg (IP), 1.5 h, TA muscle, dilution factor 4, individual animals
  Muscle Conc.: 0.220 µg/g and 0.191 µg/g
[1]; 5 mg/kg (IP), 1.5 h, TA muscle, individual animals
  Muscle Conc. before dilution factor: 54.90 ng/mL and 47.79 ng/mL
[1]; 5 mg/kg (IP), 2 h, TA muscle, dilution factor 4, individual animals
  Muscle Conc.: 0.165 µg/g and 0.133 µg/g
[1]; 5 mg/kg (IP), 2 h, TA muscle, individual animals
  Muscle Conc. before dilution factor: 41.20 ng/mL and 33.33 ng/mL
[1]; 5 mg/kg (IP), 6 h, TA muscle, dilution factor 4, individual animals
  Muscle Conc.: 0.013 µg/g and 0.024 µg/g
[1]; 5 mg/kg (IP), 6 h, TA muscle, individual animals
  Muscle Conc. before dilution factor: 3.25 ng/mL and 5.89 ng/mL
[1]; 5 mg/kg (IP), 12 h, TA muscle, dilution factor 4, individual animals
  Muscle Conc.: BQL
[1]; 5 mg/kg (IP), 12 h, TA muscle, individual animals
  Muscle Conc. before dilution factor: 1.21 ng/mL and 0.79 ng/mL and 1.75 ng/mL
[1]; 5 mg/kg (IP), 12 h, TA muscle, n = 3
  Muscle Conc., Mean: BQL
[1]; 5 mg/kg IP
  delay until peak detection in skeletal muscle (tibialis anterior): approximately 20 min
  skeletal muscle level relative to that needed for enzyme inhibition: may not reach levels where it can function as an enzymatic inhibitor
[1]; [4]
  peak muscle level: ~ 0.35 ug/g tissue
  time of peak muscle level: ~ 1 hour
[1]; crude estimate of referee #2 with 1 g tissue = 1 ml
  half maximal inhibitor concentration in muscle: ~ 0.5 uM
[1]; 5 mg/kg (IP), 0.5 h, TA muscle, dilution factor 4, individual animals, read-out: Muscle Conc.
  concentration at 0.5 h: 338 ng/g
[1]; 5 mg/kg (IP), 0.5 h, TA muscle, individual animals, read-out: Muscle Conc. before dilution factor
  concentration at 0.5 h: 84.6 ng/mL
[1]; 5 mg/kg (IP), 0.5 h, TA muscle, n = 3, read-out: Muscle Conc., Mean
  concentration at 0.5 h: 323 ng/g
[1]; 5 mg/kg (IP), 1 h, TA muscle, dilution factor 4, individual animals, read-out: Muscle Conc.
  concentration at 1 h: 347 ng/g
[1]; 5 mg/kg (IP), 1 h, TA muscle, individual animals, read-out: Muscle Conc. before dilution factor
  concentration at 1 h: 86.7 ng/mL
[1]; 5 mg/kg (IP), 1 h, TA muscle, n = 3, read-out: Muscle Conc., Mean
  concentration at 1 h: 350 ng/g
[1]; 5 mg/kg (IP), 1.5 h, TA muscle, dilution factor 4, individual animals, read-out: Muscle Conc.
  concentration at 1.5 h: 231 ng/g
[1]; 5 mg/kg (IP), 1.5 h, TA muscle, individual animals, read-out: Muscle Conc. before dilution factor
  concentration at 1.5 h: 57.7 ng/mL
[1]; 5 mg/kg (IP), 1.5 h, TA muscle, n = 3, read-out: Muscle Conc., Mean
  concentration at 1.5 h: 214 ng/g
[1]; 5 mg/kg (IP), 2 h, TA muscle, dilution factor 4, individual animals, read-out: Muscle Conc.
  concentration at 2 h: 166 ng/g
[1]; 5 mg/kg (IP), 2 h, TA muscle, individual animals, read-out: Muscle Conc. before dilution factor
  concentration at 2 h: 41.5 ng/mL
[1]; 5 mg/kg (IP), 2 h, TA muscle, n = 3, read-out: Muscle Conc., Mean
  concentration at 2 h: 155 ng/g
[1]; 5 mg/kg (IP), 6 h, TA muscle, dilution factor 4, individual animals, read-out: Muscle Conc.
  concentration at 6 h: 16 ng/g
[1]; 5 mg/kg (IP), 6 h, TA muscle, individual animals, read-out: Muscle Conc. before dilution factor
  concentration at 6 h: 3.9 ng/mL
[1]; 5 mg/kg (IP), 6 h, TA muscle, n = 3, read-out: Muscle Conc., Mean
  concentration at 6 h: 17 ng/g
[2]; 0.25 h, individual animals
  Plasma Conc.: 15.310 ng/mL and 14.890 ng/mL
[2]; 0.5 h, individual animals
  Plasma Conc.: 9.450 ng/mL and 9.888 ng/mL
[2]; 1.5 h, individual animals
  Plasma Conc.: 6.230 ng/mL and 6.772 ng/mL
[2]; 2 h, individual animals
  Plasma Conc.: 5.288 ng/mL and 4.936 ng/mL
[2]; 8 h, individual animals
  Plasma Conc.: 0.232 ng/mL and 0.333 ng/mL
[2]; 12 h, individual animals
  Plasma Conc.: BQL
[2]; 12 h, n = 3
  Plasma Conc., Mean: BQL
[2]; 24 h, individual animals
  Plasma Conc.: BQL
[2]; 24 h, n = 3
  Plasma Conc., Mean: BQL
[2]; 5 mg/kg IP
  detection in plasma after IP delivery: detectable in the plasma immediately after intraperitoneal; also recorded: could be detected in the plasma
[2]; [4]
  time by which plasma concentration is undetectable: ~ 8 hours
[2]; 5 mg/kg IP, as read by referee #2 from the PK figure
  peak plasma concentration after injection: 16
[2]; male, C57BL/6J, mouse, plasma, 0.25 h, individual animals, read-out: Plasma Conc.
  concentration at 0.25 h: 18.1 ng/mL
[2]; male, C57BL/6J, mouse, plasma, 0.25 h, n = 3, read-out: Plasma Conc., Mean
  concentration at 0.25 h: 16.1 ng/mL
[2]; male, C57BL/6J, mouse, plasma, 0.5 h, individual animals, read-out: Plasma Conc.
  concentration at 0.5 h: 11.4 ng/mL
[2]; male, C57BL/6J, mouse, plasma, 0.5 h, n = 3, read-out: Plasma Conc., Mean
  concentration at 0.5 h: 10.3 ng/mL
[2]; male, C57BL/6J, mouse, plasma, 1.5 h, individual animals, read-out: Plasma Conc.
  concentration at 1.5 h: 6.66 ng/mL
[2]; male, C57BL/6J, mouse, plasma, 1.5 h, n = 3, read-out: Plasma Conc., Mean
  concentration at 1.5 h: 6.55 ng/mL
[2]; male, C57BL/6J, mouse, plasma, 2 h, individual animals, read-out: Plasma Conc.
  concentration at 2 h: 4.85 ng/mL
[2]; male, C57BL/6J, mouse, plasma, 2 h, n = 3, read-out: Plasma Conc., Mean
  concentration at 2 h: 5.03 ng/mL
[2]; male, C57BL/6J, mouse, plasma, 8 h, individual animals, read-out: Plasma Conc.
  concentration at 8 h: 0.248 ng/mL
[2]; male, C57BL/6J, mouse, plasma, 8 h, n = 3, read-out: Plasma Conc., Mean
  concentration at 8 h: 0.271 ng/mL
[2]; male, C57BL/6J, mouse, plasma, 5 mg/kg IP, as read by referee #2
  half-life: ~1 h
[3]
  kidney, liver and heart appearance and mass: no major difference compared to vehicle-treated mice; also recorded: no gross significant change
[3]; individual animals
  Kidney mass: 4.5487 and 5.186 and 4.22 and 4.517
  Liver mass: 49.3264 and 63.6644 and 45.6088 and 64.8958
  heart mass: 3.6875 and 4.058 and 4.981 and 4.532
[3]; n = 4
  Kidney mass, Average: 4.6181
  Liver mass, Average: 55.8738
  heart mass, Average: 4.315
